Measured values as given in patent US4985417A, “Treatment of glaucoma” (priority 1989, dated 1991).
Structures can show the parent of a compound that is named as a salt.

Legend:
[1] = biological target: carbonic anhydrase; experiment: carbonic anhydrase inhibition (concentration for 50% inhibition); assay type: biochemical; conditions: carbonic anhydrase inhibitory properties; read-out: Conc. for 50% Inhibition
[2] = cited from earlier work

Work on `NS(=O)(=O)c1ccc(NC(=O)[C@@H]2CCCN2)cc1` [4-(L-prolylamino)benzenesulfonamide hydrochloride] yielded an IC50 [1] of 94.9 nM.

With `CC(=O)N1CCC[C@H]1C(=O)Nc1ccc(S(N)(=O)=O)cc1` [4-(N-acetyl-L-prolyl-amino)benzenesulfonamide] the IC50 [1] was 67.5 nM.

In the case of `CC(=O)Nc1nnc(S(N)(=O)=O)s1` [Acetazolamide, acetazolamide], the water solubility [2] is given as “about 0.01 % w/v”.
